From patent publication US20230027026A1, “FUSED PYRIMIDINE COMPOUNDS, COMPOSITIONS AND MEDICINAL APPLICATIONS THEREOF” (JUBILANT BIOSYS LIMITED, priority 2019, published 2023)
Where a name gives a salt, the structure may show the parent alone.

Legend:
EGFR (T790M/L858R) = biological target: T1, EGFR (T790M/L858R) (Homo sapiens, UniProt P00533, L858R/T790M); assay: EGFR L858R/T790M enzyme inhibition assay (HTRF); type: biochemical; conditions: 5 μM ATP, 60 min, read-out: EGFR_L858R T790M_IC50_nM
T1 construct: GST; purchased Proqinase
Procedure: Example 2: EGFR L858R & Del19/T790M Assay Protocol (to Find the IC50 for the Compounds Using HTRF Method)
Reagents for Enzyme Assay:
• 1. Enzyme Assay Buffer: 60 mM HEPES (pH 7.4), 50 mM NaCl, 20 mM MgCl2, 5 mM MnCl2, filtered using 0.2 μm pore size, stored at 4° C. • Supplements (added fresh to the enzyme buffer): 1M DTT stock was made, 5% BSA stock and 0.1M Na3OV4 stored at 4° C. Enzyme assay buffer 50 mL, 1 M DTT 100 μL, 5% BSA 500 μL, 0.1 M Na3OV4 50 μL. • 2. GST-hEGFR (L858R), active: EGFR (T790M/L858R), active (Proqinase), 3.6 μM stock; 2.5 nM in final assay. • 3. Gastrin Precusor-Biotinylated: Gastrin precursor (Tyr87) biotinylated peptide, EEAY*GWM, Cell Signaling Tech 1310, Lot-7, Want final 0.5 μM in assay. • 4. ATP: 10 mM stock in 100 μL Enzyme assay buffer pH 7.4 prepared freshly, want 5 μM in final assay. • 5. Test compounds: Powders were dissolved in 100% DMSO and made up to a final stock concentration of 10 mM (volume in μL to add for 10 mM=mg powder X 10^5/MW). Final compound concentration in the assay plate started at 10 μM.
• 1. HTRF buffer: 50 mM Tris —HCl, pH-7.5, 100 mM NaCl, 0.1% BSA, 0.05% Tween20, 0.5 mM EDTA, filtered using 0.2 μm pore size, stored at 4° C. • Phycolink® Streptavidin-Allophycocyanin (SA-APC) Prozyme, Cat. #PJ25S, Lot #896 085, 2.06 mg/mL, APC concentration is 11.6 μM, streptavidin concentration is 15.5 μM. Want 12 nM final in assay (based on streptavidin concentration). • 2. (Europium) Eu-W1024 Anti-phosphotyrosine (PT-66) Antibody: Perkin Elmer (Product Number: AD0068), monoclonal IgG1 that recognizes phosphotyrosine peptide 100 μg/ml stock. Want 0.1 nM final in assay.
• 1. The compound dilution was made by TECAN as per the above scheme. • 2. 16 μL of diluted compound was added to the assay plate by using TECAN. • 3. 10 μL of enzyme mix was added to each well except mins. • 4. 20 μL of substrate and ATP mix were added into each well of the assay plate, manually. • 5. The plate was incubated on a laboratory shaker at room temperature for 60 min. • 6. Meanwhile, the HTRF mix was prepared and 75 μL was added to the HTRF plate. • 7. When the incubation was over, 10 μL of the reaction mixture was transferred to the HTRF assay plate and incubated on a laboratory shaker for 30 min at room temperature. • 8. The reading was taken in Pherastar (ext 337 nm, Em 665 & 620 nm). • 9. The results were analyzed using Graphpad prism after calculation of the z factor, signal window and % inhibition to get the IC50.

A431 cells = assay: Cellular proliferation (Alamar Blue) assay, A431; type: cell-based; conditions: Homo sapiens, A-431; A431 cells, 72 hr, Alamar Blue; read-out: A431 IC50
Procedure: (§1) Example 3: Cellular Proliferation (Alamar Blue) Assays
(§2) • 1. EGFR(D770_N771insSVD) expressing Ba/F3 stable cell line • 2. EGFR (A767_dupASV) expressing Ba/F3 stable cell line • 3. A431 cells • 4. BTER2 (A775_G776insYVMA) expressing Ba/F3 stable cell line • 5. BTER2 (WT) expressing Ba/F3 stable cell line • 6. BT-474 cells
(§3) • 1. Seed cells at 5000 for A431 and 15,000 cells for Ba/F3 in 100 μL/well in complete media (for A431: DMEM with 10% FBS and for Ba/F3 cells: RPMI with 10% FBS) in 96-well tissue culture plate. Leave outer wells without cells for background measurements. Incubate at 37 degree Celsius in 5% CO2 humidified incubator for 16-18 hours. • 2. Add 0.025 ml of 5× concentration compound dilution or DMSO control. Final compound concentration range is 10-0.0005 μM prepared in 3-fold serial dilutions. Incubate for 72 hr at 37 degree Celsius in […] humidified incubator. • 3. Add 0.0125 mL Alamar Blue™ reagent to each well with multi-channel pipette and tap gently on each side of the plate to mix. Incubate for 3 hours at 37 degree Celsius in […] humidified incubator. • 4. Read plates on fluorescence reader (Tecan Spark Control, Device: Spark, Serial #: 1801006040) at 540 nm excitation, 590 nm emission wavelength. • 5. Data analysis was performed using XLfit 5.5.0.5.

[1] = biological target: EGFR (A767_dupASV) expressing Ba/F3 stable cell line (Homo sapiens, UniProt P00533, DUP767-769, cells depend on it); assay: Cellular proliferation (Alamar Blue) assay, EGFR A767_dupASV Ba/F3; type: cell-based; conditions: EGFR A767_dupASV Ba/F3, 72 hr, read-out: A767 IC50
Procedure: as §1, §2, §3

[2] = biological target: EGFR(D770_N771insSVD) expressing Ba/F3 stable cell line (Homo sapiens, UniProt P00533, DUP768-770, cells depend on it); assay: Cellular proliferation (Alamar Blue) assay, EGFR D770_N771insSVD Ba/F3; type: cell-based; conditions: EGFR D770_N771insSVD Ba/F3, 72 hr, read-out: D770 IC50
Procedure: as §1, §2, §3

EGFR (A767_dupASV) expressing Ba/F3 stable cell line, sequence (P00533 with tags, fused parts or gaps DUP767-769): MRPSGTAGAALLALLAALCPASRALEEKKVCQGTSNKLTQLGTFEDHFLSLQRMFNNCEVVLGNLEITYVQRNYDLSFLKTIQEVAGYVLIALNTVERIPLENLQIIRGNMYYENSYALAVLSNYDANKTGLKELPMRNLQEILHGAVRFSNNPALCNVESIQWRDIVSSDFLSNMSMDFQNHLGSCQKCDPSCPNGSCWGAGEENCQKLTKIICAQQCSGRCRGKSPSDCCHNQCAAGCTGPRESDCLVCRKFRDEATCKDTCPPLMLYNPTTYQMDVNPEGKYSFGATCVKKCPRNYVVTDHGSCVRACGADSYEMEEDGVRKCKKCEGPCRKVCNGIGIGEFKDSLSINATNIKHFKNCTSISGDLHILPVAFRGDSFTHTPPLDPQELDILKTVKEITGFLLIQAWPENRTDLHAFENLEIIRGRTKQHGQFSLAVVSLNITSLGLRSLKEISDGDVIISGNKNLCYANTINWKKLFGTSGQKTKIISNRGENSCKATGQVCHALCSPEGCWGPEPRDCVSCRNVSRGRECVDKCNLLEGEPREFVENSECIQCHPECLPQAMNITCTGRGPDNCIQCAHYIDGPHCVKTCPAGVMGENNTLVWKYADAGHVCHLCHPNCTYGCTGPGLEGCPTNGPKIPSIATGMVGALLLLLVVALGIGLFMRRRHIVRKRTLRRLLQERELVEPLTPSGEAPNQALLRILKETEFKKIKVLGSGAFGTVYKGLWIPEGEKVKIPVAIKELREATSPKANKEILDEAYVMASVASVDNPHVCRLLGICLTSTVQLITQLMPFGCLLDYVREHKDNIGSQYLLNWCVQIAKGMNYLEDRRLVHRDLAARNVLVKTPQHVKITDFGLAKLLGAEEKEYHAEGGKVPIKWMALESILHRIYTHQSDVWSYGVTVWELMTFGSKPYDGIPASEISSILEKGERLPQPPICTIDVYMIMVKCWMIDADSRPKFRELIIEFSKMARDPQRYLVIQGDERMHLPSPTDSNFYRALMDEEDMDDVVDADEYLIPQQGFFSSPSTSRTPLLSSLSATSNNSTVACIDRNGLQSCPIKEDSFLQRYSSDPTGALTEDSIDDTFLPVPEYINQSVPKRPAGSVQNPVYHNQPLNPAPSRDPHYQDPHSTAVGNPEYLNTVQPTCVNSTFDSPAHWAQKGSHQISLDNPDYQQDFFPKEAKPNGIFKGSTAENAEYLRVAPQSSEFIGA
T1 sequence (P00533 25-1210 T790M/L858R): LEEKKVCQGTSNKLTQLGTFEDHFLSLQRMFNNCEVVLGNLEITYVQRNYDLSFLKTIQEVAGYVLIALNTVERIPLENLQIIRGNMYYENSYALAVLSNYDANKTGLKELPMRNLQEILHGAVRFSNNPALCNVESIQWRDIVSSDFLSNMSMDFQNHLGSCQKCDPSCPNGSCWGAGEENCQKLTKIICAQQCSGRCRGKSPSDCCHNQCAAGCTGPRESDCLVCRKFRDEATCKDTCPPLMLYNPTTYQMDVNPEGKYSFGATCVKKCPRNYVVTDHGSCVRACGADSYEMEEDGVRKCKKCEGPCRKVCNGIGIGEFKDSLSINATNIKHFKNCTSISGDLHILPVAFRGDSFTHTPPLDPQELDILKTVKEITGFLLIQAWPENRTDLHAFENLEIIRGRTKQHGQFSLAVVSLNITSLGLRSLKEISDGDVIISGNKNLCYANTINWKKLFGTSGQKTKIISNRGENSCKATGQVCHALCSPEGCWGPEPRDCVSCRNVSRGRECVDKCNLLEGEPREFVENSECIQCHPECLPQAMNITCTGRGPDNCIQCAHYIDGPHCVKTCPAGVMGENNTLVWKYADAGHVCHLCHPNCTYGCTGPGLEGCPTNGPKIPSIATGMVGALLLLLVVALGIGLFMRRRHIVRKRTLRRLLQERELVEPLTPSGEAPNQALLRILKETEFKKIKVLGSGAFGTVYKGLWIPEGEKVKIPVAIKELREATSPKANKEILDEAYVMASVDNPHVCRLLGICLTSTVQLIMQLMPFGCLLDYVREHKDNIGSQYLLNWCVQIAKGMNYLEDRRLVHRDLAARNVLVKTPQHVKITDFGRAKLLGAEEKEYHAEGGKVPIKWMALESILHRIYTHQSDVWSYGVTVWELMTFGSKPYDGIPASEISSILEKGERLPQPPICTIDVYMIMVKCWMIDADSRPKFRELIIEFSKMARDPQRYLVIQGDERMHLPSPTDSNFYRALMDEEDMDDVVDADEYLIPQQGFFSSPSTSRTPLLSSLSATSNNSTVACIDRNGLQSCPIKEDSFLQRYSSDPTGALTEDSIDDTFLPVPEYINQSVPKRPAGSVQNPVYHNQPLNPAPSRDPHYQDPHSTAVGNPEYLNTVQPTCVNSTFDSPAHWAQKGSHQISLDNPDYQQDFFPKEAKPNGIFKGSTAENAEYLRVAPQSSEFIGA
EGFR(D770_N771insSVD) expressing Ba/F3 stable cell line, sequence (P00533 with tags, fused parts or gaps DUP768-770): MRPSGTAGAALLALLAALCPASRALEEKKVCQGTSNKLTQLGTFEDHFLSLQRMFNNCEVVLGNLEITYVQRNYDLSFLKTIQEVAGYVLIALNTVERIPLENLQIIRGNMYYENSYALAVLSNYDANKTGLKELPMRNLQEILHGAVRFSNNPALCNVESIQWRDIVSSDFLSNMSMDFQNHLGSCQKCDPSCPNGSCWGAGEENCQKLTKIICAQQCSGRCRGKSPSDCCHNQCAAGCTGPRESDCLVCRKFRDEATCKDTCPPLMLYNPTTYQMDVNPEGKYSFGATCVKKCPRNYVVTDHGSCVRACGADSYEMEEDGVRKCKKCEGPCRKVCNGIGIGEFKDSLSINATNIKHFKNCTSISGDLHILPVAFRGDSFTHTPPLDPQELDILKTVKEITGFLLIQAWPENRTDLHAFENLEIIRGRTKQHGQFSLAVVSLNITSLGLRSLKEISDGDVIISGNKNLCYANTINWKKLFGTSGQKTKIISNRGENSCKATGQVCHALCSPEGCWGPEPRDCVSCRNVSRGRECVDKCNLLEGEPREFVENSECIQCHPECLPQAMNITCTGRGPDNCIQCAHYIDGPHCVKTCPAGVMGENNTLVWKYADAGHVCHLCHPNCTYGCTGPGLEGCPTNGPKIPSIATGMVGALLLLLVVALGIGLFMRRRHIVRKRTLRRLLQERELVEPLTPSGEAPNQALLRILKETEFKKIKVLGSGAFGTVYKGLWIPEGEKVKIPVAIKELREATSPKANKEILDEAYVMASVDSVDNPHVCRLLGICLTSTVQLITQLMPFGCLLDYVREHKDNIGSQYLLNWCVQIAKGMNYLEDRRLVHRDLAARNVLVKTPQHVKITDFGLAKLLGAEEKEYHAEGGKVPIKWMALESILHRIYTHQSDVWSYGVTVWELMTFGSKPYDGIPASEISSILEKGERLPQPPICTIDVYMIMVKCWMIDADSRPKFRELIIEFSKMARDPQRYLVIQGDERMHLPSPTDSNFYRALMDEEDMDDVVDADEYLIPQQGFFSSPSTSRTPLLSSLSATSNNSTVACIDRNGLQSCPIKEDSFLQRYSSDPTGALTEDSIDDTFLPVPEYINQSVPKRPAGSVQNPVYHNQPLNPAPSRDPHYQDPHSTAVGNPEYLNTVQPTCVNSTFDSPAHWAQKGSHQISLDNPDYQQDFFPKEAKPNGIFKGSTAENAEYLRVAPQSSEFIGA

Row | IC50 (EGFR (T790M/L858R)) [nM] | IC50 (A431 cells) [nM] | GI50 [1] [nM] | GI50 [2] [nM] | SMILES
1 | 446 | 7490 | ≥ 10000 | ≥ 10000 | C=CC(=O)N1CC[C@@H](N2C(=O)N(Cc3ccccc3)Cc3cnc(Nc4cn(C)nc4Cl)nc32)C1 (single isomer, unassigned) [Compound 38]
2 | 869 | ≥ 10000 | 4080 | 3880 | CN(C)C/C=C/C(=O)NC1CCCC(N2C(=O)N(Cc3ccccc3)Cc3cnc(Nc4cn(C)nc4Cl)nc32)C1 (stereo not drawn) [Compound 33, (E)-N-(3-(3-benzyl-7-((3-chloro-1-methyl-1H-pyrazol-4-yl)amino)-2-oxo-3,4-dihydropyrimido[4,5-d]pyrimidin-1(2H)-yl)cyclohexyl)-4-(dimethylamino)but-2-enamide]
3 | 6570 |  |  |  | CN(C)C/C=C/C(=O)N1CCC(N2C(=O)N(Cc3ccccc3)Cc3cnc(Nc4cn(C)nc4Cl)nc32)C1 (stereo not drawn) [Compound 34, (E)-3-benzyl-7-((3-chloro-1-methyl-1H-pyrazol-4-yl)amino)-1-(1-(4-(dimethylamino)but-2-enoyl)pyrrolidin-3-yl)-3,4-dihydropyrimido[4,5-d]pyrimidin-2(1H)-one]
4 | 2.97 | ≥ 10000 | 3920 | ≥ 10000 | C=CC(=O)NC1CCCC(N2C(=O)N(c3ccc(F)cc3)Cc3cnc(Nc4cn(C)nc4Cl)nc32)C1 (stereo not drawn) [Compound 36, N-(3-(7-((3-chloro-1-methyl-1H-pyrazol-4-yl)amino)-3-(4-fluorophenyl)-2-oxo-3,4-dihydropyrimido[4,5-d]pyrimidin-1(2H)-yl)cyclohexyl)acrylamide]
5 | 580 | ≥ 10000 | 504 | 759 | C=CC(=O)N1CC[C@H](N2C(=O)N(c3ccccc3)Cc3cnc(Nc4cn(C)nc4Cl)nc32)C1 [Compound 41, (S)-1-(1-acryloylpyrrolidin-3-yl)-7-((3-chloro-1-methyl-1H-pyrazol-4-yl)amino)-3-phenyl-3,4-dihydropyrimido[4,5-d]pyrimidin-2(1H)-one]
6 | ≥ 10000 | ≥ 10000 | ≥ 10000 | ≥ 10000 | CN(C)C/C=C/C(=O)N1CC[C@H](N2C(=O)N(c3ccccc3)Cc3cnc(Nc4cn(C)nc4Cl)nc32)C1 [Compound 42, (S,E)-7-((3-chloro-1-methyl-1H-pyrazol-4-yl)amino)-1-(1-(4-(dimethylamino)but-2-enoyl)pyrrolidin-3-yl)-3-phenyl-3,4-dihydropyrimido[4,5-d]pyrimidin-2(1H)-one]
7 |  | ≥ 10000 | 100 | 176 | CN(C)C/C=C/C(=O)Nc1cccc(N2C(=O)N(Cc3ccccc3)Cc3cnc(Nc4cn(CC(F)F)nc4Cl)nc32)c1 [Compound 101, (E)-N-(3-(3-benzyl-7-((3-chloro-1-(2,2-difluoroethyl)-1H-pyrazol-4-yl)amino)-2-oxo-3,4-dihydropyrimido[4,5-d]pyrimidin-1(2H)-yl)phenyl)-4-(dimethylamino)but-2-enamide]
8 |  | ≥ 10000 | 694 | 929 | CN(C)C/C=C/C(=O)Nc1cccc(N2C(=O)N(Cc3ccccc3)Cc3cnc(Nc4ccc5c(c4)ncn5C)nc32)c1 [Compound 102, (E)-N-(3-(3-benzyl-7-((1-methyl-1H-benzo[d]imidazol-5-yl)amino)-2-oxo-3,4-dihydropyrimido[4,5-d]pyrimidin-1(2H)-yl)phenyl)-4-(dimethylamino)but-2-enamide]
9 |  | ≥ 10000 | 269 | 224 | COc1ncccc1Nc1ncc2c(n1)N(c1cccc(NC(=O)/C=C/CN(C)C)c1)C(=O)N(Cc1ccccc1)C2 [Compound 103, (E)-N-(3-(3-benzyl-7-((2-methoxypyridin-3-yl)amino)-2-oxo-3,4-dihydropyrimido[4,5-d]pyrimidin-1(2H)-yl)phenyl)-4-(dimethylamino)but-2-enamide trifluoroacetate salt]
10 |  | ≥ 10000 | 255 | 885 | CN(C)C/C=C/C(=O)N(C)c1cccc(N2C(=O)N(c3ccccc3)Cc3cnc(Nc4cn(C)nc4Cl)nc32)c1 [Compound 104, (E)-N-(3-(7-((3-chloro-1-methyl-1H-pyrazol-4-yl)amino)-2-oxo-3-phenyl-3,4-dihydropyrimido[4,5-d]pyrimidin-1(2H)-yl)phenyl)-4-(dimethylamino)-N-methylbut-2-enamide]
11 |  | 3600 | 12 | 14 | C=CC(=O)Nc1cccc(N2C(=O)N(c3ccccc3)Cc3cnc(Nc4cn(C5CCN(C)CC5)nc4Cl)nc32)c1 [Compound 105, N-(3-(7-((3-chloro-1-(1-methylpiperidin-4-yl)-1H-pyrazol-4-yl)amino)-2-oxo-3-phenyl-3,4-dihydropyrimido[4,5-d]pyrimidin-1(2H)-yl)phenyl)acrylamide]
12 |  | ≥ 10000 | 1090 | 2290 | CN1CCN(C/C=C/C(=O)Nc2cccc(N3C(=O)N(c4ccccc4)Cc4cnc(Nc5cn(C)nc5Cl)nc43)c2)CC1 [Compound 126, (E)-N-(3-(7-((3-chloro-1-methyl-1H-pyrazol-4-yl)amino)-2-oxo-3-phenyl-3,4-dihydropyrimido[4,5-d]pyrimidin-1(2H)-yl)phenyl)-4-(4-methylpiperazin-1-yl)but-2-enamide]
13 |  | 8170 | ≥ 10000 | ≥ 10000 | C=C(OC)C(=O)Nc1cccc(N2C(=O)N(c3ccccc3)Cc3cnc(Nc4cn(C)nc4Cl)nc32)c1 [Compound 127, N-(3-(7-((3-chloro-1-methyl-1H-pyrazol-4-yl)amino)-2-oxo-3-phenyl-3,4-dihydropyrimido[4,5-d]pyrimidin-1(2H)-yl)phenyl)-2-methoxyacrylamide]
14 |  | ≥ 10000 | ≥ 10000 | 9260 | C=CC(=O)Nc1ccccc1N1C(=O)N(c2ccccc2)Cc2cnc(Nc3cn(C)nc3Cl)nc21 [Compound 130, N-(2-(7-((3-chloro-1-methyl-1H-pyrazol-4-yl)amino)-2-oxo-3-phenyl-3,4-dihydropyrimido[4,5-d]pyrimidin-1(2H)-yl)phenyl)acrylamide]
15 |  | ≥ 10000 | 960 | 973 | C=CC(=O)Nc1cccc(N2C(=O)N(c3ccccc3)Cc3cnc(Nc4cn(C5CCNCC5)nc4Cl)nc32)c1 [Compound 132, N-[3-(7-{[3-chloro-1-(piperidin-4-yl)-1H-pyrazol-4-yl]amino}-2-oxo-3-phenyl-1H,2H,3H,4H-pyrimido[4,5-d][1,3]diazin-1-yl)phenyl]prop-2-enamide]
